Blank lines part the entries; values can stand above or below the compound they belong to. Ends that are not written are not given here.
Tests used:
HaCaT keratinocytes = experiment: Cell proliferation assay (CellTiter-GLO); format: cell-based, human; conditions: 4 days, up to 30 μmol/L, n = 3
Experimental: (§1) Cells (1–2 × 10^3/well) were plated in 96-well plates in complete culture medium in the presence or absence of the SSTNIGF1R peptide for 72–120 hours, or alternatively in the presence or absence of the SSTNIGF1R peptide or ASK inhibitor for 24 hours. Cell growth was measured against a standard curve using CellTiter-GLO, in accordance with the manufacturer's instructions.

[1] = tested on: NOKs (normal oral keratinocytes); experiment: Cell proliferation assay (CellTiter-GLO); format: cell-based, human; conditions: NOK, 4 days, up to 30 μmol/L, n = 3
Experimental: as §1

SCC6 HNSCC cell line = experiment: Cell proliferation assay (CellTiter-GLO); format: cell-based, human; conditions: 4 days, up to 30 μmol/L, n = 4
Experimental: as §1

SCC90 HNSCC cell line = experiment: Cell proliferation assay (CellTiter-GLO); format: cell-based, human; conditions: 4 days, up to 30 μmol/L, n = 4
Experimental: as §1

TU-138 HNSCC cell line = experiment: Cell proliferation assay (CellTiter-GLO); format: cell-based, human; conditions: 4 days, up to 30 μmol/L, n = 4
Experimental: as §1

UD-SCC2 HNSCC cell line = experiment: Cell proliferation assay (CellTiter-GLO); format: cell-based, human; conditions: 4 days, up to 30 μmol/L, n = 4
Experimental: as §1

UM-SCC1 HNSCC cell line = experiment: Cell proliferation assay (CellTiter-GLO); format: cell-based, human; conditions: 4 days, up to 30 μmol/L, n = 4
Experimental: as §1

normal HTE cells = experiment: Cell proliferation assay (CellTiter-GLO); format: cell-based, human; conditions: 4 days, up to 30 μmol/L, n = 3
Experimental: as §1

UM-SCC47 cells [2] = tested on: UM-SCC47 cells
SCC25 cells [3] = tested on: SCC25 cells
[4] = molecular target: T1, IGF1R and ITGAV pairing (Sdc1:IGF1R:ITGAV receptor complex) in UM-SCC47 cells (Homo sapiens, UniProt P08069); experiment: Proximity ligation assay ITGAV:IGF1R in cultured cells; format: cell-based; conditions: UM-SCC47 cells pretreated for 6 hours with 30 μmol/L; 15 images over three experiments
T1 construct: endogenous in cells; host or cells: UM-SCC47
T1 sequence (P08069 31-736 limits assumed, one chain of several): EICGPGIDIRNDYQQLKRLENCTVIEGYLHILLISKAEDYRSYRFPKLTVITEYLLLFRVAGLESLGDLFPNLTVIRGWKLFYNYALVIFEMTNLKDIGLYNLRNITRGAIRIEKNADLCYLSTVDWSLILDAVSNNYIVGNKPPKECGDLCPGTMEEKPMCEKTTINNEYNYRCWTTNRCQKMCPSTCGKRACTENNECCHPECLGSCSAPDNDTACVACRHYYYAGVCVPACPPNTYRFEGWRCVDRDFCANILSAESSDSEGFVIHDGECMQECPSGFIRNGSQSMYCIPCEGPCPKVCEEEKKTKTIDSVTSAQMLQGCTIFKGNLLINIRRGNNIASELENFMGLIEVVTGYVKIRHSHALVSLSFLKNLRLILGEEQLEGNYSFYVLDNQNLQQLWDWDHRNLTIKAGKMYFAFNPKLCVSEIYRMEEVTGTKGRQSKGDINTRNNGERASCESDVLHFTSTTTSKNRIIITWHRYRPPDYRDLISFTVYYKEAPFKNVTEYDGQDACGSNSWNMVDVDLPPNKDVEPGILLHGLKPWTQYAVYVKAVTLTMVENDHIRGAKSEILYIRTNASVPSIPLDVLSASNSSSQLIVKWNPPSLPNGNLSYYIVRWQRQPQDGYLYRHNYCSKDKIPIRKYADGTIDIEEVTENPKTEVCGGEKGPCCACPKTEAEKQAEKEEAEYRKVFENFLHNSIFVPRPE
Experimental: (§2) UM-SCC47 cells treated with or without the SSTNIGF1R peptide for 6 hours were fixed in 4% paraformaldehyde, permeabilized in 0.5% Triton X-100 in 1× CMF-PBS (pH 7.4), and blocked for 1 hour at room temperature in a 3% BSA/CMF-PBS solution. Cells were stained with 1 μg/mL anti-Sdc1 polyclonal antibody, 2 μg/mL ITGAV antibody (NBP1-85746), or 4 μg/mL antibody to IGF1R (AF-305-NA) for 1 hour at room temperature, followed by incubation with 4 μg/mL Alexa488-conjugated secondary antibodies for 1 hour at room temperature. The nuclei were stained with 3 μmol/L DAPI (Molecular Probes) in 1× CMF-PBS (pH 7.4) for 10 minutes. For PLA, antibodies against ITGAV and IGF1R were used as described previously, followed by staining with PLA reagents according to the manufacturer's instructions.

[5] = tested on: Sdc1, IGF1R, ITGAV cell surface expression in UM-SCC47 cells; experiment: Immunofluorescent receptor staining of cultured cells; format: cell-based, human; conditions: UM-SCC47 cells pretreated 6 hours with 30 μmol/L, compared with vehicle alone
Experimental: as §2

IGF1R in HaCat cells = molecular target: T2, IGF1R in HaCat cells (Homo sapiens, UniProt P08069); experiment: IGF1R activation (pY1131) by immunoprecipitation and Western blot; format: cell-based; conditions: 3 hours, 100 ng/mL DES(1–3)IGF1, 30 μmol/L hSSTNIGF1R
T2 construct: endogenous in cells; host or cells: HaCat
T2 sequence (P08069 31-1367): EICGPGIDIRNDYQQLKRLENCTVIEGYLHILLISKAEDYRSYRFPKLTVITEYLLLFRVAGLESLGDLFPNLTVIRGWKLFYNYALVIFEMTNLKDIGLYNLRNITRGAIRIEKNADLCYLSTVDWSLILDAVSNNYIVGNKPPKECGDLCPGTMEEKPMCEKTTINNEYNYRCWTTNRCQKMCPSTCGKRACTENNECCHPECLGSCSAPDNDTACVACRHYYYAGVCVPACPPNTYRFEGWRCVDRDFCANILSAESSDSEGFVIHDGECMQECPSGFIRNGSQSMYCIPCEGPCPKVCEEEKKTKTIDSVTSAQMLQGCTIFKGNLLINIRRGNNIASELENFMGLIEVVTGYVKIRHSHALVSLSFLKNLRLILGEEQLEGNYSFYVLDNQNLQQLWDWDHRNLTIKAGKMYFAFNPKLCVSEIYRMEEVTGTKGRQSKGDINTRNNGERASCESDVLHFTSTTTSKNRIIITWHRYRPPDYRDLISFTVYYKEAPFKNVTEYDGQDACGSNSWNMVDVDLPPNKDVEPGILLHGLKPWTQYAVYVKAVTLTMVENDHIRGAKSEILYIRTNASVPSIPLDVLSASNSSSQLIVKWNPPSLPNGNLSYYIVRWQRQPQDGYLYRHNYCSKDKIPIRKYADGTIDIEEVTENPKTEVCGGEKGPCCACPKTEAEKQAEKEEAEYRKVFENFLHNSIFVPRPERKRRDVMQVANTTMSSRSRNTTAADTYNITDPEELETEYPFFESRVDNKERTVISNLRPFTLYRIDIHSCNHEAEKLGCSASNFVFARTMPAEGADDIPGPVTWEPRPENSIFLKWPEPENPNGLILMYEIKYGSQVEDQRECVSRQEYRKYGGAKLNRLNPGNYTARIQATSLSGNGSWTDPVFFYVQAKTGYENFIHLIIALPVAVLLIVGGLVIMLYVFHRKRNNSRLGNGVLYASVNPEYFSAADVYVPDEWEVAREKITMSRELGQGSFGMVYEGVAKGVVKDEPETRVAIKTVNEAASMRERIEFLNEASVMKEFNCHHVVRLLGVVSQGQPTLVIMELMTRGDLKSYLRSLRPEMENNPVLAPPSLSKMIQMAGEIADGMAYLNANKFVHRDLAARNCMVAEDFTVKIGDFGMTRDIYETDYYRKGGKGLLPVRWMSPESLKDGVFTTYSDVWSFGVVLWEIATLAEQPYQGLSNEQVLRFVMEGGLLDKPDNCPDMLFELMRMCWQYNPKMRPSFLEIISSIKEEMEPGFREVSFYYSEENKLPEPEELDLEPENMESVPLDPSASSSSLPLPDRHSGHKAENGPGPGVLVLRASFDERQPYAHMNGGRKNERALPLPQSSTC
Experimental: (§3) Immunoprecipitation of IGF1R with or without competing SSTN peptide was carried out as described previously ([18, 19]) using 0.5–1.0 mg of input/sample and lysis buffer supplemented with HALT protease and phosphatase inhibitor cocktail (Thermo Fisher Scientific).

IGF1R in UM-SCC47 cells = molecular target: T3, IGF1R in UM-SCC47 cells (Homo sapiens, UniProt P08069); experiment: as above; format: cell-based; conditions: 3 hours, 100 ng/mL DES(1–3)IGF1, 30 μmol/L hSSTNIGF1R
T3 construct: constitutively active IGF1R is identified in UW-SCC47 cells by staining for pY1131; endogenous in cells; host or cells: UM-SCC47
T3 sequence (P08069 31-1367): as above
Experimental: as §3

HTE = experiment: Stress and apoptosis marker antibody array; format: cell-based, human; conditions: 16 hours, 30 μmol/L (mSSTNIGF1R per Fig. 4B)
Experimental: (§4) The activation of stress/apoptosis markers was analyzed as described previously ([17]). Caspase activity was measured in cells in complete culture medium with SSTNIGF1R or ASK inhibitor for 24 hours using Caspase 3/7-GLO in accordance with the manufacturer's instructions.

HaCaT keratinocyte = experiment: Stress and apoptosis marker antibody array; format: cell-based, human; conditions: 16 hours, 30 μmol/L (mSSTNIGF1R per Fig. 4B)
Experimental: as §4

NOK = experiment: Stress and apoptosis marker antibody array; format: cell-based, human; conditions: 16 hours, 30 μmol/L (mSSTNIGF1R per Fig. 4B)
Experimental: as §4

SCC25 cells [6] = experiment: Stress and apoptosis marker antibody array; format: cell-based, human; conditions: SCC25 lysates; 16 hours, 30 μmol/L (mSSTNIGF1R per Fig. 4B); compared with vehicle
Experimental: as §4

UM-SCC47 cells [7] = experiment: Stress and apoptosis marker antibody array; format: cell-based, human; conditions: UM-SCC47 lysates; 16 hours, 30 μmol/L (mSSTNIGF1R per Fig. 4B); compared with vehicle
Experimental: as §4

[8] = tested on: ASK1 (pT845), pp38MAPK, pJNK in UM-SCC47 cells; experiment: Temporal activation of ASK1, p38MAPK and JNK; format: cell-based, human; conditions: 30 minutes after treatment with 30 μmol/L hSSTNIGF1R
UW-SCC22 HNSCC PDX = experiment: PDX tumor growth in nude mice; format: in vivo; conditions: 4 weeks; for reduction of tumor growth compared with controls: P < 0.001
Excerpt: (§5) Animal studies were approved by the University of Wisconsin–Madison Institutional Animal Care and Use Committee in accordance with the NIH guidelines. UW-SCC22 or UW-SCC64 PDXs derived from head and neck tumors ([31, 32]) were provided by Wisconsin Head and Neck Cancer SPORE (https://hn-spore.wisc.edu). Minced tissue isolated from host mice was subcutaneously injected into both flanks of 6–8 weeks old female, athymic Foxn1^nu outbred nude mice (Harlan Laboratories). After 1 week, animals were randomized and surgically implanted with Alzet (Durect Corp.) osmotic pumps (Model 2004) delivering 0.25 μL/hour of either PBS or PBS containing 4 mmol/L hSSTNIGF1R for 4 weeks. Animals were humanely sacrificed, bled, and tumors were removed and fixed in 4% paraformaldehyde before paraffin embedding and sectioning.

UW-SCC64 PDX = experiment: PDX tumor growth in nude mice; format: in vivo; conditions: peptide delivered by the pump only, P < 0.001
Excerpt: as §5

[9] = Serum peptide analysis by mass spectrometry; conditions: mouse, in vivo, sc, mice, following sacrifice, 4.3 mg/kg/day by twice weekly subcutaneous injection, triplicate, read-out: steady-state concentration in plasma
Experimental: (§6) SSTNIGF1R levels in the serum of treated animals were measured in triplicate using an AB Sciex QTrap 5500 mass spectrometry system at the UW School of Pharmacy and quantified by comparison with a standard curve of peptide in mouse serum. IGF1 levels in the serum of animals bearing UW-SCC22 or UW-SCC64 tumors were measured using an ELISA kit from Thermo Fisher Scientific (EMIGF1) and compared with a mouse IGF1 standard according to the manufacturer's instructions.

[10] = molecular target: T4, ITGAV and IGF1R pairing in UW-SCC22 PDX tumors (Homo sapiens, UniProt P08069); experiment: PLA between IGF1R and ITGAV on tumor sections; format: in vivo, nude mice; conditions: 4 weeks
T4 construct: from tissue; host or cells: UW-SCC22 and UW-SCC64 PDX tumours, subcutaneous in nude mice
T4 sequence (P08069 31-736 limits assumed): as the sequence (P08069 31-736 limits assumed, one chain of several) above
Experimental: (§7) Paraffin-embedded PDX sections, sections of deidentified archival tumors from patients with tonsil carcinoma, or TMAs assembled from patients with deidentified oropharyngeal (TMA-01, TMA-02) or adenoid cystic (TMA-03) carcinoma were deparaffinized and subjected to antigen retrieval by heating in 10 mmol/L sodium citrate (pH 6.0) with 0.05% Tween 20 until boiling and then maintained at 99°C for 20 minutes before cooling to room temperature. The sections were then used for receptor and PLA staining, as described above. Fluorescent images were acquired using either a Zeiss PlanAPOCHROMAT 20X objective (0.8 NA) or 40X (1.4 NA) and a Zeiss AxioCam Mrm CCD camera on a Zeiss Axio Imager.M2 microscopy system. CellProfiler 3.1.5 (Carpenter Lab, Broad Institute of Harvard and MIT) was used to quantify nuclei and PLA signals with threshold limits based on relevant comparative controls. Cell Profiler software analysis was checked by direct comparison with visual quantification of PLA dots or DAPI-stained nuclei in test images to accurately quantify PLA dots per cell and to exclude false or background fluorescence. The specificity of the antibodies used and the concentrations of PLA reagents used were optimized on test samples before use on experimental sections.

[11] = molecular target: T5, ITGAV and IGF1R pairing in UW-SCC64 PDX tumors (Homo sapiens, UniProt P08069); experiment: PLA between IGF1R and ITGAV on tumor sections; format: in vivo, nude mice; conditions: pump
T5 construct: from tissue; host or cells: UW-SCC22 and UW-SCC64 PDX tumours, subcutaneous in nude mice
T5 sequence (P08069 31-736 limits assumed): as the sequence (P08069 31-736 limits assumed, one chain of several) above
Experimental: as §7

[12] = tested on: ASK-1 in UW-SCC22 PDX tumors; experiment: pT845-ASK1 staining of tumor sections; format: in vivo, nude mice; conditions: UW-SCC22 tumors treated by injection or pump for 4 weeks
Experimental: as §7

[13] = tested on: ASK-1 in UW-SCC64 PDX tumors; experiment: pT845-ASK1 staining of tumor sections; format: in vivo, nude mice; conditions: as early as the 3-day timepoint
Experimental: as §7

Serum IGF1 ELISA = format: in vivo, mice; conditions: for IGF1 (ng/mL) ± SD: hSSTNIGF1R delivered by Alzet pumps, ELISA, n = 6
Experimental: as §6

[14] = allows use as a therapeutic agent in vivo; cited from earlier work
UM-SCC47 cells [15] = experiment: Caspase assay (Caspase 3/7-GLO); format: cell-based, human; conditions: 24 hours, increasing concentrations of NQD1 up to 30 μmol/L
Experimental: as §4

IC50 (UM-SCC47 cells [2]): 1 to 10 µM
IC50 (SCC25 cells [3]): 1 to 10 µM
Compound: LPAGEKPEEGEPVLHVEAEPGFTARDKE [active mSSTNIGF1R]
cell growth (HaCaT keratinocytes): unaffected
cell growth [1]: unaffected
cell growth (SCC6 HNSCC cell line): reduced growth
cell growth (SCC90 HNSCC cell line): reduced growth
cell growth (TU-138 HNSCC cell line): reduced growth
cell growth (UD-SCC2 HNSCC cell line): reduced growth
cell growth (UM-SCC1 HNSCC cell line): reduced growth
cell growth (normal HTE cells): unaffected

PLA signal, colocalization of IGF1R and ITGAV [4]: signal is lost
IGF1-mediated activation of IGF1R (pY1131) (IGF1R in HaCat cells): unaffected
IGF1-mediated activation of IGF1R (pY1131) (IGF1R in UM-SCC47 cells): blocked
level at time molar [9]: 13 µM
reduction of ITGAV and IGF1R pairing (PLA) ([10]; plasma concentration 13 μmol/L (injection), versus saline-treated tumors): 90%
ITGAV and IGF1R pairing (PLA) ([10]; plasma concentration 32 μmol/L, pump-mediated delivery): reduced to nearly undetectable levels
reduction of ITGAV and IGF1R pairing (PLA) ([11]; UW-SCC64 tumors after 3-day treatment): 80%
ITGAV and IGF1R pairing (PLA) ([11]; UW-SCC64 tumors, 5-week treatment): essentially abolished
serum levels of IGF1 (Serum IGF1 ELISA; animals bearing UW-SCC22 tumors): no change
serum levels of IGF1 (Serum IGF1 ELISA; animals bearing UW-SCC64 tumors): no change
IGF1 (ng/mL) ± SD (Serum IGF1 ELISA; serum of mice bearing UW-SCC22, saline control 34.8 ± 1.0): 34.6 ± 0.9 ng/mL
IGF1 (ng/mL) ± SD (Serum IGF1 ELISA; serum of mice bearing UW-SCC64, saline control 34.0 ± 0.9): 33.7 ± 1.1 ng/mL
Compound: STSTLPAGEGPKEGEAVVLPEVEPGLTAREQE [hSSTNIGF1R]
cell surface expression of Sdc1, IGF1R, ITGAV [5]: no change
change in apoptotic markers (antibody array) (HTE): little or no response
change in apoptotic markers (antibody array) (HaCaT keratinocyte): little or no response
change in apoptotic markers (antibody array) (NOK): little or no response
change in apoptotic markers (antibody array) (SCC25 cells [6]): significant increases in activated caspase 3 and PARP, and reduced levels of survivin and phosphorylated Erk, Akt, and Bad
change in apoptotic markers (antibody array) (UM-SCC47 cells [7]): significant increases in activated caspase 3 and PARP, and reduced levels of survivin and phosphorylated Erk, Akt, and Bad
active ASK1 (pT845), pp38MAPK, and pJNK [8]: increased
reduction of tumor growth compared with controls (UW-SCC22 HNSCC PDX; 4.3 mg/kg/day, Alzet pump): approximately 94%
tumor size after treatment (UW-SCC22 HNSCC PDX; 4.3 mg/kg/day, constant infusion via Alzet pump, start 102 ± 21 mm^3, saline 2,767 ± 631 mm^3): 270 ± 49 mm^3
tumor size after treatment (UW-SCC22 HNSCC PDX; 4.3 mg/kg/day, twice weekly subcutaneous injection): 664 ± 138 mm^3
reduction of tumor growth compared with controls (UW-SCC22 HNSCC PDX; twice weekly subcutaneous injection): 79%
reduction of tumor growth compared with saline-treated controls (UW-SCC64 PDX): 85%
pT845-ASK-1 staining [12]: Positive staining
pT845-ASK1 staining [13]: pT845 staining indicative of ASK-1 activation
half-life [14]: ~24 h

Compound: CCOC(=O)c1c2c3c(cccc3[nH]c1=O)C(=O)c1ccccc1-2 [NQD1, NQDI-1]
caspase 3 activation induced by 30 μmol/L SSTNIGF1R (UM-SCC47 cells [15]): gradually reduce
restoration of cell growth in the SSTN-treated cells (UM-SCC47 cells [2]; UM-SCC47, 24 hours, NQD1 up to 30 μmol/L with 30 μmol/L SSTNIGF1R, CellTiter-GLO): 80%

Compound: inactive mSSTNIGF1R: Inactive control peptide, amino acids 94–119 of mouse Sdc1 (AGEKPEEGEPVLHVEAEPGFTARDKE; UniProt P18828 94-119, looked up, fragment) [reference compound]
effect on cell numbers (UM-SCC47 cells [2]; UM-SCC47, up to 6 days, concentration range, CellTiter-GLO): no effect
effect on cell numbers (SCC25 cells [3]; SCC25, up to 6 days, concentration range, CellTiter-GLO): no effect

Reference: PMC10035507, “Inhibiting IGF1R-mediated Survival Signaling in Head and Neck Cancer with the Peptidomimetic SSTNIGF1R” (Cancer Research Communications, 2023)
